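Cultured in 96-well plates, cells were exposed to test compound for 48 hours across five concentrations. Abbreviation: GI50, concentration required for 50% inhibition of growth. TGI is the concentration that stops growth completely.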
Experiments:
Assay in all cases: NCI-60 cell line screen, 48 h
HS 578T breast = system: HS 578T breast
CAKI-1 renal = system: CAKI-1 renal
SN12C renal = system: SN12C renal
OVCAR-3 ovarian = system: OVCAR-3 ovarian
OVCAR-5 ovarian = system: OVCAR-5 ovarian
786-0 renal = system: 786-0 renal
LOX IMVI melanoma = system: LOX IMVI melanoma
SF-295 CNS = system: SF-295 CNS
A549 NSCLC = system: A549 NSCLC
SF-539 CNS = system: SF-539 CNS
SNB-19 CNS = system: SNB-19 CNS
SK-MEL-2 melanoma = system: SK-MEL-2 melanoma
ACHN renal = system: ACHN renal
HCT-15 colon = system: HCT-15 colon
SK-MEL-5 melanoma = system: SK-MEL-5 melanoma
OVCAR-4 ovarian = system: OVCAR-4 ovarian
NCI-H522 lung = system: NCI-H522 lung
MCF7 breast = system: MCF7 breast
HCT-116 colon = system: HCT-116 colon
PC-3 prostate = system: PC-3 prostate
NCI-H460 lung = system: NCI-H460 lung
SF-268 CNS = system: SF-268 CNS
HL-60(TB) leukemia = system: HL-60(TB) leukemia
UACC-62 melanoma = system: UACC-62 melanoma
SK-OV-3 ovarian = system: SK-OV-3 ovarian
NCI-H226 lung = system: NCI-H226 lung
A498 renal = system: A498 renal
BT-549 breast = system: BT-549 breast
COLO 205 colon = system: COLO 205 colon
EKVX NSCLC = system: EKVX NSCLC
RPMI-8226 leukemia = system: RPMI-8226 leukemia
SNB-75 CNS = system: SNB-75 CNS
RXF 393 renal = system: RXF 393 renal
DU-145 prostate = system: DU-145 prostate
T-47D breast = system: T-47D breast
HOP-92 NSCLC = system: HOP-92 NSCLC
IGROV1 ovarian = system: IGROV1 ovarian
HOP-62 NSCLC = system: HOP-62 NSCLC
NCI-H23 lung = system: NCI-H23 lung
U251 CNS = system: U251 CNS
TK-10 renal = system: TK-10 renal
MOLT-4 leukemia = system: MOLT-4 leukemia
M14 melanoma = system: M14 melanoma
MDA-MB-231 breast = system: MDA-MB-231 breast
SR leukemia = system: SR leukemia
SK-MEL-28 melanoma = system: SK-MEL-28 melanoma
MALME-3M melanoma = system: MALME-3M melanoma
NCI/ADR-RES ovarian = system: NCI/ADR-RES ovarian
MDA-MB-435 = system: MDA-MB-435
KM12 colon = system: KM12 colon
HCC-2998 colon = system: HCC-2998 colon
UACC-257 melanoma = system: UACC-257 melanoma
UO-31 renal = system: UO-31 renal
HT29 colon = system: HT29 colon
CCRF-CEM leukemia = system: CCRF-CEM leukemia
SW-620 colon = system: SW-620 colon
K-562 leukemia = system: K-562 leukemia

COc1cc2oc(-c3cccc(C(=O)Nc4cccc([N+](=O)[O-])c4)c3)cc(=O)c2c(OC)c1OC
GI50 (HS 578T breast): 2.51 µM
TGI (HS 578T breast): 7.23 µM
GI50 (CAKI-1 renal): 2.86 µM
TGI (CAKI-1 renal): 10.9 µM
GI50 (SN12C renal): 3.36 µM
TGI (SN12C renal): > 100 µM
GI50 (OVCAR-3 ovarian): 4.44 µM
TGI (OVCAR-3 ovarian): > 100 µM
GI50 (OVCAR-5 ovarian): > 100 µM
TGI (OVCAR-5 ovarian): > 100 µM
GI50 (786-0 renal): 3.68 µM
TGI (786-0 renal): 21.7 µM
GI50 (LOX IMVI melanoma): 5.73 µM
TGI (LOX IMVI melanoma): > 100 µM
GI50 (SF-295 CNS): 2.51 µM
TGI (SF-295 CNS): 6.9 µM
GI50 (A549 NSCLC): 4.94 µM
TGI (A549 NSCLC): > 100 µM
GI50 (SF-539 CNS): 4.4 µM
TGI (SF-539 CNS): 41.7 µM
GI50 (SNB-19 CNS): 6.91 µM
TGI (SNB-19 CNS): 68.9 µM
GI50 (SK-MEL-2 melanoma): 11.9 µM
TGI (SK-MEL-2 melanoma): > 100 µM
GI50 (ACHN renal): 3.22 µM
TGI (ACHN renal): > 100 µM
GI50 (HCT-15 colon): 5.25 µM
TGI (HCT-15 colon): > 100 µM
GI50 (SK-MEL-5 melanoma): 5.17 µM
TGI (SK-MEL-5 melanoma): > 100 µM
GI50 (OVCAR-4 ovarian): 2.72 µM
TGI (OVCAR-4 ovarian): 9.09 µM
GI50 (NCI-H522 lung): 3.14 µM
TGI (NCI-H522 lung): 23.2 µM
GI50 (MCF7 breast): 3.8 µM
TGI (MCF7 breast): > 100 µM
GI50 (HCT-116 colon): 3.57 µM
TGI (HCT-116 colon): > 100 µM
GI50 (PC-3 prostate): 3.55 µM
TGI (PC-3 prostate): > 100 µM
GI50 (NCI-H460 lung): 3.87 µM
TGI (NCI-H460 lung): > 100 µM
GI50 (SF-268 CNS): 3.49 µM
TGI (SF-268 CNS): > 100 µM
GI50 (HL-60(TB) leukemia): > 100 µM
TGI (HL-60(TB) leukemia): > 100 µM
GI50 (UACC-62 melanoma): 4.92 µM
TGI (UACC-62 melanoma): > 100 µM
GI50 (SK-OV-3 ovarian): 4.26 µM
TGI (SK-OV-3 ovarian): > 100 µM
GI50 (NCI-H226 lung): 2.29 µM
TGI (NCI-H226 lung): 7.38 µM
GI50 (A498 renal): 34.9 µM
TGI (A498 renal): > 100 µM
GI50 (BT-549 breast): 2.46 µM
TGI (BT-549 breast): 8.09 µM
GI50 (COLO 205 colon): > 100 µM
TGI (COLO 205 colon): > 100 µM
GI50 (EKVX NSCLC): 7.32 µM
TGI (EKVX NSCLC): > 100 µM
GI50 (RPMI-8226 leukemia): 2.88 µM
TGI (RPMI-8226 leukemia): > 100 µM
GI50 (SNB-75 CNS): 1.99 µM
TGI (SNB-75 CNS): 6.08 µM
GI50 (RXF 393 renal): 2.28 µM
TGI (RXF 393 renal): 18.8 µM
GI50 (DU-145 prostate): 4.77 µM
TGI (DU-145 prostate): > 100 µM
GI50 (T-47D breast): 3.56 µM
TGI (T-47D breast): > 100 µM
GI50 (HOP-92 NSCLC): 5.46 µM
TGI (HOP-92 NSCLC): 42.4 µM
GI50 (IGROV1 ovarian): 7.99 µM
TGI (IGROV1 ovarian): > 100 µM
GI50 (HOP-62 NSCLC): 6.31 µM
TGI (HOP-62 NSCLC): 33.6 µM
GI50 (NCI-H23 lung): 22.5 µM
TGI (NCI-H23 lung): > 100 µM
GI50 (U251 CNS): 6.69 µM
TGI (U251 CNS): > 100 µM
GI50 (TK-10 renal): 11.5 µM
TGI (TK-10 renal): 60.8 µM
GI50 (MOLT-4 leukemia): > 100 µM
TGI (MOLT-4 leukemia): > 100 µM
GI50 (M14 melanoma): > 100 µM
TGI (M14 melanoma): > 100 µM
GI50 (MDA-MB-231 breast): 4.26 µM
TGI (MDA-MB-231 breast): > 100 µM

COc1ccc(N(C)c2cc(C#N)nc3ccccc23)cc1N
GI50 (SR leukemia): < 0.01 µM
TGI (SR leukemia): > 73.9 µM
GI50 (HS 578T breast): < 0.01 µM
TGI (HS 578T breast): > 100 µM
GI50 (CAKI-1 renal): < 0.01 µM
TGI (CAKI-1 renal): > 100 µM
GI50 (SN12C renal): < 0.01 µM
TGI (SN12C renal): > 34.3 µM
GI50 (OVCAR-5 ovarian): < 0.01 µM
TGI (OVCAR-5 ovarian): > 100 µM
TGI (SK-MEL-28 melanoma): > 100 µM
GI50 (786-0 renal): < 0.01 µM
TGI (786-0 renal): > 100 µM
GI50 (LOX IMVI melanoma): < 0.01 µM
TGI (LOX IMVI melanoma): > 64.2 µM
GI50 (SF-295 CNS): < 0.01 µM
TGI (SF-295 CNS): > 100 µM
GI50 (A549 NSCLC): < 0.01 µM
TGI (A549 NSCLC): > 100 µM
GI50 (SF-539 CNS): < 0.01 µM
TGI (SF-539 CNS): < 0.01 µM
GI50 (SNB-19 CNS): < 0.01 µM
TGI (SNB-19 CNS): > 100 µM
GI50 (MALME-3M melanoma): < 0.01 µM
TGI (MALME-3M melanoma): > 84.6 µM
GI50 (SK-MEL-2 melanoma): < 0.01 µM
GI50 (ACHN renal): < 0.01 µM
TGI (ACHN renal): > 100 µM
GI50 (HCT-15 colon): < 0.01 µM
GI50 (SK-MEL-5 melanoma): < 0.01 µM
TGI (SK-MEL-5 melanoma): < 0.01 µM
GI50 (OVCAR-4 ovarian): 3.69 µM
TGI (OVCAR-4 ovarian): > 100 µM
GI50 (NCI-H522 lung): < 0.01 µM
TGI (NCI-H522 lung): < 0.01 µM
GI50 (MCF7 breast): < 0.01 µM
TGI (MCF7 breast): > 100 µM
GI50 (HCT-116 colon): < 0.01 µM
TGI (HCT-116 colon): 1.53 µM
GI50 (PC-3 prostate): < 0.01 µM
TGI (PC-3 prostate): > 100 µM
GI50 (NCI/ADR-RES ovarian): < 0.01 µM
TGI (NCI/ADR-RES ovarian): < 0.01 µM
GI50 (MDA-MB-435): < 0.01 µM
TGI (MDA-MB-435): < 0.01 µM
GI50 (NCI-H460 lung): < 0.01 µM
TGI (NCI-H460 lung): 4.56 µM
GI50 (SF-268 CNS): < 0.01 µM
TGI (SF-268 CNS): > 100 µM
GI50 (HL-60(TB) leukemia): < 0.01 µM
TGI (HL-60(TB) leukemia): < 0.01 µM
GI50 (UACC-62 melanoma): < 0.01 µM
TGI (UACC-62 melanoma): > 100 µM
GI50 (SK-OV-3 ovarian): < 0.0187 µM
TGI (SK-OV-3 ovarian): > 100 µM
GI50 (NCI-H226 lung): < 0.01 µM
TGI (NCI-H226 lung): > 100 µM
GI50 (A498 renal): 83.4 µM
TGI (A498 renal): > 100 µM
GI50 (BT-549 breast): < 0.01 µM
GI50 (EKVX NSCLC): < 0.01 µM
TGI (EKVX NSCLC): > 100 µM
GI50 (RPMI-8226 leukemia): < 0.01 µM
TGI (RPMI-8226 leukemia): > 54.1 µM
GI50 (SNB-75 CNS): < 0.01 µM
TGI (SNB-75 CNS): > 67.7 µM
GI50 (KM12 colon): < 0.01 µM
TGI (KM12 colon): > 45.4 µM
GI50 (RXF 393 renal): < 0.01 µM
TGI (RXF 393 renal): > 100 µM
GI50 (DU-145 prostate): < 0.01 µM
TGI (DU-145 prostate): > 100 µM
GI50 (T-47D breast): 7.61 µM
TGI (T-47D breast): > 100 µM
GI50 (HCC-2998 colon): < 0.01 µM
TGI (HCC-2998 colon): 0.131 µM
TGI (HOP-92 NSCLC): > 76.2 µM
GI50 (UACC-257 melanoma): 8.62 µM
TGI (UACC-257 melanoma): > 100 µM
GI50 (IGROV1 ovarian): < 0.01 µM
TGI (IGROV1 ovarian): > 100 µM
GI50 (HOP-62 NSCLC): < 0.01 µM
TGI (HOP-62 NSCLC): > 100 µM
GI50 (UO-31 renal): < 0.01 µM
TGI (UO-31 renal): > 100 µM
GI50 (NCI-H23 lung): < 0.01 µM
TGI (NCI-H23 lung): > 54.1 µM
GI50 (U251 CNS): < 0.01 µM
TGI (U251 CNS): > 100 µM
GI50 (TK-10 renal): 19.6 µM
TGI (TK-10 renal): > 100 µM
GI50 (HT29 colon): < 0.01 µM
TGI (HT29 colon): < 0.01 µM
GI50 (CCRF-CEM leukemia): < 0.01 µM
TGI (CCRF-CEM leukemia): > 37.1 µM
GI50 (SW-620 colon): < 0.01 µM
TGI (SW-620 colon): > 100 µM
GI50 (K-562 leukemia): < 0.01 µM
TGI (K-562 leukemia): > 100 µM
GI50 (MOLT-4 leukemia): < 0.01 µM
TGI (MOLT-4 leukemia): > 60.6 µM
GI50 (M14 melanoma): < 0.01 µM
TGI (M14 melanoma): > 100 µM
GI50 (MDA-MB-231 breast): < 0.01 µM
TGI (MDA-MB-231 breast): < 0.01 µM
